The record followed here is patent publication US11547712B2, “Kinase inhibitor compounds and compositions and methods of use” (ICAHN SCHOOL OF MEDICINE AT MOUNT SINAI, priority 2017, dated 2023).

pKd: −log10 of the molar value. Where two headings read alike, the source gives them in different places.

Assay [1] deals with T1, DYRK1A (Homo sapiens (Human), UniProt Q13627). Briefly: KINOMEscan Assay (DiscoverX), DYRK1A binding. The settings on record: for remaining binding at 30 µM: read-out: Screening (30 μM) DiscoverX: primary screen binding interactions, % DMSO Ctrl; for pKd: eleven serial three fold dilutions (in duplicate). On the procedure:
(§1) DYRK1A Binding Assays. Compounds were tested for DYRK1A binding activity at two different commercial kinase profiling services, Life Technologies and DiscoverX. […] Compounds were screened for DYRK1A activity at a single concentration of 30 μM in duplicates.

Assay [2] addresses T1, DYRK1A. Nature of the assay: FRET-based LanthaScreen Eu Kinase Binding Assay (Life Technologies). Conditions: read-out: Screening (30 μM) LifeTech: % DYRK1A inhibition at 30 μM. On the procedure:
as §1
For orientation: TR-FRET usually uses a lanthanide donor and a delayed reading to cut background.

Usually inhibition stands for the share of the control response that was lost under treatment. As to `CNC1=NN=C(c2ccc3[nH]c(=O)[nH]c3c2)CS1` [Compound 3-2, N-methyl-5-(benzo[d]imidazol-2(3H)-one)-6H-1,3,4-thiadiazin-2-amine], the remaining binding at 30 µM on DYRK1A [1] was 0.5%. In addition, the inhibition at 30 µM at DYRK1A [2] (30 μM single concentration) stood at 63%.

Regarding `CCNC1=NN=C(c2ccc3[nH]c(=O)[nH]c3c2)CS1` [Compound 3-3, N-ethyl-5-(benzo[d]imidazol-2(3H)-one)-6H-1,3,4-thiadiazin-2-amine], at DYRK1A [1], the remaining binding at 30 µM was 0%. In addition, at DYRK1A [2] (30 μM single concentration), the inhibition at 30 µM is 69%.

With `CCCNC1=NN=C(c2ccc3[nH]c(=O)[nH]c3c2)CS1` [Compound 3-4, N-propyl-5-(benzo[d]imidazol-2(3H)-one)-6H-1,3,4-thiadiazin-2-amine], the remaining binding at 30 µM at DYRK1A [1] was found to be 2.9%. At DYRK1A [2] (30 μM single concentration), the inhibition at 30 µM stood at 48%.

Turning to `CCCCNC1=NN=C(c2ccc3[nH]c(=O)[nH]c3c2)CS1` [Compound 3-5, N-butyl-5-(benzo[d]imidazol-2(3H)-one)-6H-1,3,4-thiadiazin-2-amine], the remaining binding at 30 µM at DYRK1A [1] was determined as 0%. Further, on DYRK1A [2] (30 μM single concentration), the inhibition at 30 µM stood at 24%.

For `CC(C)NC1=NN=C(c2ccc3[nH]c(=O)[nH]c3c2)CS1` [Compound 3-6, N-isopropyl-5-(benzo[d]imidazol-2(3H)-one)-6H-1,3,4-thiadiazin-2-amine], the remaining binding at 30 µM at DYRK1A [1] was 2.3%. On DYRK1A [2] (30 μM single concentration), the inhibition at 30 µM is 59%.

For the compound `CC(C)(C)NC1=NN=C(c2ccc3[nH]c(=O)[nH]c3c2)CS1` [Compound 3-7, N-t-butyl-5-(benzo[d]imidazol-2(3H)-one)-6H-1,3,4-thiadiazin-2-amine], the remaining binding at 30 µM at DYRK1A [1] is 0.75%. For the same compound, the inhibition at 30 µM at DYRK1A [2] (30 μM single concentration) came to 46%.

Usually pKd stands for −log10 of the Kd, conventionally taken in molar units. Regarding `O=c1[nH]c2ccc(C3=NN=C(NCc4ccc(Cl)cc4)SC3)cc2[nH]1` [Compound 3-12, N-(4-chlorobenzyl)-5-(benzo[d]imidazol-2(3H)-one)-6H-1,3,4-thiadiazin-2-amine], on DYRK1A [1], the pKd was 6.73 and the remaining binding at 30 µM was 19%. Moreover, the inhibition at 30 µM on DYRK1A [2] turned out to be 93%.

`O=c1[nH]c2ccc(C3=NN=C(NCc4cccc(Cl)c4)SC3)cc2[nH]1` [Compound 3-13, N-(3-chlorobenzyl)-5-(benzo[d]imidazol-2(3H)-one)-6H-1,3,4-thiadiazin-2-amine]: on DYRK1A [1], the pKd is 6.38.

The compound `O=c1[nH]c2ccc(C3=NN=C(NCc4ccccc4Cl)SC3)cc2[nH]1` [Compound 3-14, N-(2-chlorobenzyl)-5-(benzo[d]imidazol-2(3H)-one)-6H-1,3,4-thiadiazin-2-amine] had a pKd at DYRK1A [1] of 6.08.

`O=c1[nH]c2ccc(C3=NN=C(NCc4ccc(F)cc4)SC3)cc2[nH]1` [Compound 3-15, N-(4-fluorobenzyl)-5-(benzo[d]imidazol-2(3H)-one)-6H-1,3,4-thiadiazin-2-amine]: the remaining binding at 30 µM at DYRK1A [1] amounted to 8.9%. In addition, the inhibition at 30 µM at DYRK1A [2] came to 95%.

`O=c1[nH]c2ccc(C3=NN=C(NCc4cccc(F)c4)SC3)cc2[nH]1` [Compound 3-16, N-(3-fluorobenzyl)-5-(benzo[d]imidazol-2(3H)-one)-6H-1,3,4-thiadiazin-2-amine] had a pKd on DYRK1A [1] of 6.05.

With `O=c1[nH]c2ccc(C3=NN=C(NCc4ccc(C(F)(F)F)cc4)SC3)cc2[nH]1` [Compound 3-18, N-(4-trifluoromethylbenzyl)-5-(benzo[d]imidazol-2(3H)-one)-6H-1,3,4-thiadiazin-2-amine], on DYRK1A [1], the remaining binding at 30 µM is 40%. Besides, the inhibition at 30 µM on DYRK1A [2] turned out to be 53%.

Regarding `O=c1[nH]c2ccc(C3=NN=C(NCc4cccc(C(F)(F)F)c4)SC3)cc2[nH]1` [Compound 3-19, N-(3-trifluoromethylbenzyl)-5-(benzo[d]imidazol-2(3H)-one)-6H-1,3,4-thiadiazin-2-amine], the remaining binding at 30 µM at DYRK1A [1] stood at 23%. Also, the inhibition at 30 µM on DYRK1A [2] turned out to be 20%.

As to `O=c1[nH]c2ccc(C3=NN=C(NCc4ccccc4C(F)(F)F)SC3)cc2[nH]1` [Compound 3-20, N-(2-trifluoromethylbenzyl)-5-(benzo[d]imidazol-2(3H)-one)-6H-1,3,4-thiadiazin-2-amine], on DYRK1A [1], the pKd is 5.11 and the remaining binding at 30 µM was 38%. Further, on DYRK1A [2], the inhibition at 30 µM worked out at 24%.

On to `N#Cc1ccc(CNC2=NN=C(c3ccc4[nH]c(=O)[nH]c4c3)CS2)cc1` [Compound 3-21, N-(4-cyanobenzyl)-5-(benzo[d]imidazol-2(3H)-one)-6H-1,3,4-thiadiazin-2-amine], for which the remaining binding at 30 µM at DYRK1A [1] was 12%. Also, the inhibition at 30 µM at DYRK1A [2] amounted to 47%.

Consider `N#Cc1cccc(CNC2=NN=C(c3ccc4[nH]c(=O)[nH]c4c3)CS2)c1` [Compound 3-22, N-(3-cyanobenzyl)-5-(benzo[d]imidazol-2(3H)-one)-6H-1,3,4-thiadiazin-2-amine], for which the remaining binding at 30 µM on DYRK1A [1] was determined as 12%. For the same compound, on DYRK1A [2], the inhibition at 30 µM was 69%.

Consider `O=c1[nH]c2ccc(C3=NN=C(NCc4cccnc4)SC3)cc2[nH]1` [Compound 3-23, N-(pyridine-3yl)methyl-5-(benzo[d]imidazol-2(3H)-one)-6H-1,3,4-thiadiazin-2-amine], for which, on DYRK1A [1], the pKd is 6.07 and the remaining binding at 30 µM came to 4.2%. Further, the inhibition at 30 µM at DYRK1A [2] is 74%.

Regarding `O=c1[nH]c2ccc(C3=NN=C(NCc4ccncc4)SC3)cc2[nH]1` [Compound 3-24, N-(pyridine-4yl)methyl-5-(benzo[d]imidazol-2(3H)-one)-6H-1,3,4-thiadiazin-2-amine], at DYRK1A [1], the pKd is 5.66.

`CC(NC1=NN=C(c2ccc3[nH]c(=O)[nH]c3c2)CS1)c1ccccc1` (centres unmarked) [Compound 3-25, N-(1-phenylethyl)-5-(benzo[d]imidazol-2(3H)-one)-6H-1,3,4-thiadiazin-2-amine]: the remaining binding at 30 µM at DYRK1A [1] is 3.7%. The inhibition at 30 µM at DYRK1A [2] turned out to be 57%.

`CC(NC1=NN=C(c2ccc3[nH]c(=O)[nH]c3c2)CS1)c1ccc(F)cc1` (centres unmarked) [Compound 3-26, N-(1-(4-fluorophenyl)ethyl)-5-(benzo[d]imidazol-2(3H)-one)-6H-1,3,4-thiadiazin-2-amine]: on DYRK1A [1], the pKd is 5.64.

Consider `O=c1[nH]c2ccc(C3=NN=C(Nc4ccccc4)SC3)cc2[nH]1` [Compound 3-28, N-phenyl-5-(benzo[d]imidazol-2(3H)-one)-6H-1,3,4-thiadiazin-2-amine], for which, at DYRK1A [1], the pKd is 4.72 and the remaining binding at 30 µM is 41%. The inhibition at 30 µM at DYRK1A [2] amounted to 39%.

With `O=c1[nH]c2ccc(C3=NN=C(Nc4cccc(F)c4)SC3)cc2[nH]1` [Compound 3-29, N-(3-fluorophenyl)-5-(benzo[d]imidazol-2(3H)-one)-6H-1,3,4-thiadiazin-2-amine], the pKd at DYRK1A [1] is 5.15.

In the case of `O=c1[nH]c2ccc(C3=NN=C(Nc4cccc(C(F)(F)F)c4)SC3)cc2[nH]1` [Compound 3-30, N-(3-trifluoromethylphenyl)-5-(benzo[d]imidazol-2(3H)-one)-6H-1,3,4-thiadiazin-2-amine], at DYRK1A [1], the pKd was 4.85.

`N#Cc1cccc(NC2=NN=C(c3ccc4[nH]c(=O)[nH]c4c3)CS2)c1` [Compound 3-31, N-(3-cyanophenyl)-5-(benzo[d]imidazol-2(3H)-one)-6H-1,3,4-thiadiazin-2-amine] gave a negative logarithm of the Kd (pKd) on DYRK1A [1] of 5.42.

Consider `O=c1[nH]c2ccc(C3=NN=C(NCCc4ccccc4)SC3)cc2[nH]1` [Compound 3-34, N-(2-phenylethyl)-5-(benzo[d]imidazol-2(3H)-one)-6H-1,3,4-thiadiazin-2-amine], for which, at DYRK1A [1], the pKd is 5.80 and the remaining binding at 30 µM was 0.5%. The inhibition at 30 µM on DYRK1A [2] stood at 61%.

In the case of `O=c1[nH]c2ccc(C3=NN=C(NCCc4ccccn4)SC3)cc2[nH]1` [Compound 3-38, N-(2-(pyridine-1-yl)ethyl)-5-(benzo[d]imidazol-2(3H)-one)-6H-1,3,4-thiadiazin-2-amine], at DYRK1A [1], the pKd is 5.80 and the remaining binding at 30 µM stood at 8.4%. In addition, the inhibition at 30 µM at DYRK1A [2] turned out to be 87%.

With `O=c1[nH]c2ccc(C3=NN=C(NCCc4cccnc4)SC3)cc2[nH]1` [Compound 3-39, N-(2-(pyridine-3-yl)ethyl)-5-(benzo[d]imidazol-2(3H)-one)-6H-1,3,4-thiadiazin-2-amine], the pKd at DYRK1A [1] was 5.66.

For the compound `O=c1[nH]c2ccc(C3=NN=C(NCc4cccc5ccccc45)SC3)cc2[nH]1` [Compound 3-41, N-(1-naphthylmethyl)-5-(benzo[d]imidazol-2(3H)-one)-6H-1,3,4-thiadiazin-2-amine], at DYRK1A [1], the pKd was 5.14 and the remaining binding at 30 µM came out at 36%. The inhibition at 30 µM on DYRK1A [2] came to 11%.

In turn, `NC(=O)c1cccc(CNC2=NN=C(c3ccc4[nH]c(=O)[nH]c4c3)CS2)c1` [Compound 4-2, N-(3-carboxyaminobenzyl)-5-(benzo[d]imidazol-2(3H)-one)-6H-1,3,4-thiadiazin-2-amine] gave a pKd on DYRK1A [1] of 6.36.

Regarding “N-(3-phenylpropyl)-5-(benzo[d]imidazol-2(3H)-one)-6H-1,3,4-thiadiazin-2-amine [Compound 3-37]”, the pKd on DYRK1A [1] was 6.02.
